# How the values were obtained:
# [1] = Storage stability of CLF in human plasma at −70° C. over 4 weeks (Test 4), HPLC-MS/MS; format: in vitro ADME; settings: for CLF remaining / CLF concentration: (D) storage in plasma at −70° C. per title (section head prints 37° C.); for CLF remaining: vs To; for CLF concentration: 100 ng/ml, mean ± SEM (n = 2)
# Procedure: A working solution of CLF was prepared at 10 μg/ml by diluting the compound in methanol (100%).
# At To and 4 weeks, 72 hours and 24 hours before To, 4 μl of the working solution of CLF were added to 400 μl of human plasma. The final concentration of CLF was of 100 ng/ml. Samples were divided in 2 equal fractions of 200 μl and stored at −70° C. until further analysis.
# An internal standard (IS), 5-([4,6-Dichlorotriazin-2-yl]amino)fluorescein hydrochloride, was added to each plasma sample (calibrators, QC, zero and test samples) in order to monitor the extraction. Thus, a stock solution of IS at 100 μg/ml in acetonitrile was 50-fold diluted in acetonitrile in order to obtain a final concentration of 2 μg/ml. Then, 200 μl of this solution were added to each plasma sample in order to precipitate the proteins. Samples were vortexed/mixed and centrifuged 5 min at 20,000 g (4° C.). After centrifugation, the clear supernatant (around 250 μl) was transferred into 1.2 ml HPLC glass vials and sealed. Samples were placed into the refrigerated autosampler and 20 μl were injected into the HPLC-MS/MS system. Test samples were injected twice.
# HPLC separation was operated with a mixture of water and acetonitrile containing 0.1% of formic acid and the reversed phase mode was selected. The injected volume of sample was 20 μl and the “full loop” mode was applied. The temperature of the analytical column was kept at 30° C.
# CLF and its IS were separated on an Acclaim 120 C18 column (5 μm, 2.1×100 mm, Dionex) by elution with a linear gradient of acetonitrile in water as described in Table 6.
# An ion trap mass spectrometer equipped with an ESI interface was operated in the positive ionization mode. For each compound, the most abundant ion formed in MS was selected for MS/MS fragmentations. In order to increase the sensitivity and the specificity of the method, the MRM mode was selected. The most specific daughter ions formed in MS/MS were used for quantification.
# [2] = Stability of CLF-spiked serum samples after 12 day storage at 2-8° C., CLF ELISA; format: in vitro ADME, human
# Procedure: These conditions were used for all assays described in Phase 2a (above) and Phase 2b (below). See Appendix B and C for buffer and conjugate formulations respectively: • Add 25 μl/well of sample or standard (0-1000 ng/ml CLF in Buffer #24) to the wells of a streptavidin-coated microtitre plate (NovAssay, F2SAC). • Add 100 μl/well of fluorescein-biotin (Sigma B9431) at 20 ng/ml in Buffer #24+0.2% w/v ANS (Sigma 10417). • Add 100 μl/well of anti-fluorescein HRP (NovAssay, DV047/17-3) at 100 ng/ml in Buffer #24. • Incubate the plate for 30 minutes at room temperature. • Wash the plate 3 times with 800 μl/well Buffer #29 and tap the plate dry. • Add 100 μl/well of SureBlue Reserve TMB Substrate (KPL) and incubate the plate for 10 minutes at room temperature. • Stop the substrate reaction by adding 100 μl/well of 1M HCl and read the absorbance at 450 nm wavelength (ThermoFisher Scientific, Multiskan FC).
# Sample drift was assessed by using two sera spiked with CLF to 4 levels (62.5, 125, 250 and 500 ng/ml). Each of the samples were added to streptavidin coated wells (in duplicate) soon after the addition of the standards (time 0, in columns 5&6)); after 5 minutes the samples were added to columns 7&8; “5 minute” time point” 5 minutes later in columns 9&10 (“10 minute time point” and 5 minutes later in columns 11&12 (“15 minute time point”). The samples used were prepared 12 days prior to the experiment and were kept at 2-8° C. In addition, some other serum samples that were spiked with CLF at the same time (12 days prior to the assay) were also measured in order to determine the stability of CLF (note: The data obtained are the results of 2 variables (instability of CLF and the recovery) and thus represent a “worst case scenario”.
# The level of instability (after 12 day storage at 2-8° C.) was calculated by comparing the results obtained with the expected results.
# [3] = 12 day storage at 2-8° C., pool1, Expected 125 ng/ml
# [4] = 12 day storage at 2-8° C., pool2, Expected 31.25 ng/ml
# [5] = 12 day storage at 2-8° C., pool3, Expected 500 ng/ml
# [6] = 12 day storage at 2-8° C., sample 5876, Expected 1000 ng/ml
# [7] = 12 day storage at 2-8° C., sample 5881, Expected 1000 ng/ml
# [8] = 12 day storage at 2-8° C., sample 5883, Expected 500 ng/ml
# [9] = 12 day storage at 2-8° C., sample 5883, Expected 1000 ng/ml
# [10] = 12 day storage at 2-8° C., sample 5884, Expected 62.5 ng/ml
# [11] = 12 day storage at 2-8° C., sample 5884, Expected 125 ng/ml
# [12] = 12 day storage at 2-8° C., sample 5884, Expected 250 ng/ml
# [13] = 12 day storage at 2-8° C., sample 5884, Expected 500 ng/ml
# [14] = 12 day storage at 2-8° C., sample 5885, Expected 62.5 ng/ml
# [15] = 12 day storage at 2-8° C., sample 5885, Expected 125 ng/ml
# [16] = 12 day storage at 2-8° C., sample 5885, Expected 250 ng/ml
# [17] = 12 day storage at 2-8° C., sample 5885, Expected 500 ng/ml
# [18] = 12 day storage at 2-8° C., sample 5885, Expected 1000 ng/ml
smiles,measurement,setting,value
"CC(CCC(=O)NC(CCCCNC(=S)Nc1ccc(-c2c3ccc(=O)cc-3oc3cc(O)ccc23)c(C(=O)O)c1)C(=O)O)C1CCC2C3C(O)CC4CC(O)CCC4(C)C3CC(O)C12C [CLF, Cholyl-L-Lysyl-Fluorescein]",CLF remaining,[1]; 0.0 days,100.0%
same,CLF concentration,[1]; 0.0 days,101.2 ± 5.8 ng/mL
same,CLF concentration,[1]; 1.0 days,105.5 ± 2.5 ng/mL
same,CLF concentration,[1]; 3.0 days,104.7 ± 6.9 ng/mL
same,CLF concentration,[1]; 28.0 days,96.2 ± 1.4 ng/mL
same,CLF remaining,[1]; 1.0 days,104.3%
same,CLF remaining,[1]; 3.0 days,103.5%
same,CLF remaining,[1]; 28.0 days (4 weeks),95.0%
same,plasmatic concentrations measured,"[1]; plasma spiked with 100 ng/ml, stored at −70° C., 0-4 weeks",96.2 to 105.5 ng/mL
same,CLF stability in plasma on storage,[1]; up to 4 weeks at −70° C.,stable
same,time over which CLF stability in human plasma was confirmed,[1]; −70° C.,at least 4 weeks
same,"Difference, mean","[2]; 12 day storage at 2-8° C., mean of all samples",−27%
same,Difference,[2]; [3],−39%
same,observed,[2]; [3],76 ng/mL
same,Difference,[2]; [4],−14%
same,observed,[2]; [4],27 ng/mL
same,Difference,[2]; [5],−27%
same,observed,[2]; [5],365 ng/mL
same,Difference,[2]; [6],−24%
same,observed,[2]; [6],756 ng/mL
same,Difference,[2]; [7],−18%
same,observed,[2]; [7],820 ng/mL
same,Difference,[2]; [8],−25%
same,observed,[2]; [8],375 ng/mL
same,Difference,[2]; [9],−10%
same,observed,[2]; [9],903 ng/mL
same,Difference,[2]; [10],−29%
same,observed,[2]; [10],44 ng/mL
same,Difference,[2]; [11],−36%
same,observed,[2]; [11],80 ng/mL
same,Difference,[2]; [12],−39%
same,observed,[2]; [12],153 ng/mL
same,Difference,[2]; [13],−32%
same,observed,[2]; [13],340 ng/mL
same,Difference,[2]; [14],−27%
same,observed,[2]; [14],46 ng/mL
same,Difference,[2]; [15],−33%
same,observed,[2]; [15],84 ng/mL
same,Difference,[2]; [16],−29%
same,observed,[2]; [16],177 ng/mL
same,Difference,[2]; [17],−24%
same,observed,[2]; [17],379 ng/mL
same,Difference,[2]; [18],−20%
same,observed,[2]; [18],804 ng/mL
same,reduction in measured CLF (mean),[2]; samples kept at 2-8 C. for 12 days,27%) occurs when samples are kept
same,reduction in measured CLF (mean),"[2]; spiked serum samples kept at 2-8° C. for 12 days, vs expected",27%
